{
  "source": "patent US9486434B2",
  "about": "“Method for delivery and use of isothiocyanates for prophylaxis and/or therapy of bladder cancer” (Health Research Inc., priority 2010, dated 2016)",
  "key": {"UM-UC-3 cells": {"test_system": "UM-UC-3 cells", "assay": "Mitochondria-mediated apoptosis in UM-UC-3 cells (Δψm, cytochrome c, TUNEL)", "type": "cell-based, human", "experimental": "FIG. 4. Effect of AITC on mitosis, tubulin expression and apoptosis in human bladder cancer UM-UC-3 cells. Cells were treated with vehicle or AITC for 24 h (each numerical value is mean±SD). A. Flow cytometry analysis for cell cycle arrest. B. Wright-Giemsa staining for counting mitotic figures. Arrows point to cells in mitosis or mitotic catastrophe. C. Immunofluorescent staining of microtubules (green color) and DNA staining with DAPI (blue color). D. Western blotting of tubulins (GAPDH as a loading control). E. Loss of mitochondrial transmembrane potential (Δψm) measured by flow cytometry. F. Western blotting of caspase-9 and caspase-3 (GAPDH as a loading control). G. Apoptotic cells (TUNEL cells) measured by flow cytometry. Cells in F and G were co-treated with or without 20 microM Z-LEHD-FMK (a caspase-9 inhibitor)."}, "[1]": {"test_system": "caspase-3, α-tubulin, β-tubulin, VEGF in AY-27 cells", "assay": "Western blotting in cultured AY-27 cells", "type": "cell-based, rat", "details": "NAC-AITC 7.5 and 15 μM, 24 h", "experimental": "FIG. 8. Inhibition of bladder cancer development by MSP-1. Female F344 rats were inoculated with AY-27 cells intravesically via a urethra catheter to initiate development of orthotopic bladder cancer. Oral administration of MSP-1 of vehicle (water) once daily was started 1 day after cancer cell inoculation and ended 3 weeks later. The number of rats per group varied from 11-29. A. Initial (□) and final (▪) body weights. B. Tumor weight was calculated by subtracting the average normal bladder weight from tumor-bearing bladder weight. *P<0.05. Each value in A and B is mean±SEM. C. Percentage of bladder where the tumor invaded the muscle tissue. D. The effects of MSP-1 on selected anticancer targets in UM-UC-3 cells (in vitro), AY-27 cells (in vitro) and AY-27 tumors (in vivo). The cells were treated with MSP-1 at the sinigrin concentrations of 13 and 26 microM for 24 h. The bladder tumors were removed from rats treated with MSP-1 at the sinigrin doses of 9 or 90 micromols/kg once daily for 3 weeks, started 1 day after cancer cell inoculation. Cell lysates and tumor homogenates were analyzed by Western blotting, using GAPDH as a loading control.\nFIG. 13. Molecular targets of NAC-AITC in bladder cancer. AY-27 cells in culture were treated with NAC-AITC for 24 h. The results are representative of at least two experiments. The bladder tumors were removed from rats, which were treated with NAC-AITC orally at 10 μmol/kg once daily for 3 weeks, starting 1 day after intravesicular inoculation of AY-27 cells. The results are representative of three to five tumors assayed in each group. Cell lysates and tumor tissue homogenates were analyzed by western blot analysis, using GAPDH as a loading control.\nWestern blot analysis. Cells after harvest were washed with ice-cold phosphate-buffered saline, suspended in radioimmunoprecipitation assay lysis buffer supplemented with a protease inhibitor cocktail (Sigma-Aldrich) and further lysed by sonication. […]"}, "24-h urinary recovery": {"assay": "24-h urinary recovery", "type": "in vivo", "details": "female, F344, rat, urine, po, 300 μmol/kg, single oral dose 300 μmol/kg", "experimental": "Measurement of pharmacokinetic profiles of AITC and NAC-AITC. The experiment was carried out in female F344 rats since these animals were used in the rat bladder cancer model described above. Groups of three to five rats (8-9 weeks of age) were given a single oral dose of AITC, NAC-AITC or vehicles. AITC was administered in 0.5 ml of soy oil per rat, whereas NACAITC was dissolved in DMSO and diluted with water and administered in 0.2 ml volume (5% DMSO) per rat. The rats were immediately transferred to metabolism cages (one rat per cage), with free access to food and water, for urine collection over four consecutive periods of 0-1.5, 1.5-3, 3-6 and 6-24 h. […]\nAITC and NAC-AITC contents in the plasma and urine were determined using the high-performance liquid chromatography (HPLC)-based cyclocondensation assay, and are expressed as AITC equivalent or NAC-AITC equivalent. […]\nTo specifically measure urinary levels of NAC-AITC, groups of five rats were dosed orally with either AITC or NAC-AITC at 300 μmol/kg and immediately moved to metabolism cages (one rat per cage) for 24 h urine collection. […] The compounds were monitored at both 230 nm (AITC) and 254 nm (its metabolites). […] The fraction corresponding to NAC-AITC was collected and quantified by the cyclocondensation assay; its identity was confirmed by infusion electrospray ionization mass spectrometry."}},
  "note": "Read-outs that look alike come from different tables or passages of the source.",
  "data": [
    {"compound": "C=CCN=C=S", "note": "[AITC, allyl isothiocyanate]", "values": [
      {"measurement": "TUNEL-positive cells", "setting": "UM-UC-3 cells; 24 h, flow cytometry", "value": "formation of TUNEL-positive cells"},
      {"measurement": "mitochondrial transmembrane potential", "setting": "UM-UC-3 cells; 24 h, flow cytometry", "value": "caused a loss of mitochondrial transmembrane potential"},
      {"measurement": "cytochrome c release", "setting": "UM-UC-3 cells; result not shown", "value": "release of cytochrome c from mitochondria to cytoplasm"}
    ]},
    {"compound": "C=CCNC(=S)SC[C@H](NC(C)=O)C(=O)O", "note": "[NAC-AITC, N-acetyl-S—(N-allylthiocarbamoyl)cysteine]", "values": [
      {"measurement": "VEGF level", "setting": "[1]", "value": "downregulation"},
      {"measurement": "caspase-3 cleavage/activation", "setting": "[1]", "value": "dose-dependent cleavage/activation"},
      {"measurement": "α-tubulin and β-tubulin levels", "setting": "[1]", "value": "downregulation"},
      {"measurement": "dose excreted", "setting": "24-h urinary recovery; HPLC fraction, read-out: 24-h urinary recovery, Recovered as NAC-AITC, % of adminstered dose", "value": "47.3 ± 1.8", "unit": "%"},
      {"measurement": "dose excreted", "setting": "24-h urinary recovery; read-out: 24-h urinary recovery, Recovered as NAC-AITC, % of total recovery", "value": 83.3, "unit": "%"}
    ]}
  ]
}
